Measurements from ChEMBL document CHEMBL1150450, “Synthesis and antiangiogenic activity of new carbohydrate derivatives” (Bioorg Med Chem Lett, 1996).
Several values for one entry are separate records, joined by “and”; a condition that tells them apart may be missing. Identical values can stand only once.

Tests used:
[1] = tested on: A-431; experiment: In vitro antiproliferative effect against A431 human epidermoid carcinoma cells; assay type: functional, cell-based
[2] = organism: Gallus gallus; experiment: Antiangiogenic activity using CAM assay, activity expressed as % of eggs with avascular zone (125 nM).; assay type: functional
[3] = Antiproliferative effect against primary endothelial cells from pork aorta(ECPA); assay type: functional, cell-based, Sus scrofa, Endothelial cell
[4] = Compound was tested for antiproliferative effect against primary endothelial cells from pork aorta (ECPA) with first-phase IC50 of 0.1 nM; conditions: Sus scrofa, Endothelial cell
[5] = Compound was tested for antiproliferative effect against primary endothelial cells from pork aorta(ECPA) with first-phase IC50 of 0.001 nM; conditions: Sus scrofa, Endothelial cell
[6] = Compound was tested for antiproliferative effect against primary endothelial cells from pork aorta(ECPA) with first-phase IC50 of 0.1 nM; conditions: Sus scrofa, Endothelial cell
[7] = Compound was tested for antiproliferative effect against primary endothelial cells from pork aorta(ECPA); assay type: functional, cell-based; conditions: Sus scrofa, Endothelial cell

| Compound | IC50 ([1]; Homo sapiens, A-431) [µM] | Eggs [2] | IC50 ([3]; Sus scrofa, Endothelial cell) [µM] | further results |
| --- | --- | --- | --- | --- |
| CO[C@@H]1[C@H](OC(=O)NC(=O)CCl)CO[C@]2(COC(C)(C)O2)[C@@]1(OC(=O)NC(=O)CCl)C1OC1CCCc1ccccc1 (some centres not stated) | 3.7 | 63% | 16 |  |
| CO[C@@H]1C(=O)CC[C@]2(CO2)[C@@]1(O)[C@@]1(C)O[C@@H]1CC=C(C)C [OVALICIN] | 7.5 |  |  | IC50 [4]: 10 µM |
| CO[C@@H]1[C@H](OC(=O)NC(=O)CCl)CC[C@]2(CO2)[C@H]1[C@@]1(C)O[C@@H]1CC=C(C)C [O-CHLOROACETYLCARBAMOYLFUMAGILLOL] | 5.3 | 85% |  | IC50 [5]: 12 µM |
| CO[C@@H]1[C@H](OC(=O)NC(=O)CCl)CO[C@]2(COC(C)(C)O2)[C@]1(CCCCCc1ccccc1)OC(=O)NC(=O)CCl | 1.2 | 88% | 0.8 |  |
| CO[C@@H]1[C@H](OC(=O)NC(=O)CCl)CO[C@]2(COC(=O)O2)[C@]1(CCCCCc1ccccc1)OC(=O)NC(=O)CCl | 2 | 80% | 2.4 |  |
| CO[C@@H]1[C@H](OC(=O)/C=C/C=C/C=C/C=C/C(=O)O)CC[C@]2(CO2)[C@H]1[C@@]1(C)O[C@@H]1CC=C(C)C [FUMAGILLIN] | 48 | 80% |  | IC50 [6]: 100 µM |
| CO[C@@H]1[C@H](OC(=O)NC(=O)CCl)CO[C@]2(COC(=O)O2)[C@@]1(O)CCCCCc1ccccc1 | 11 | 95% |  | IC50 [7]: 14 µM |
| CCOC(=O)NC(=O)O[C@@H]1CO[C@]2(COC(C)(C)O2)[C@@](O)(C2OC2CC(C)C)[C@@H]1OC (some centres not stated) | 471 | 11% | 398 |  |
| CCOC(=O)CNC(=O)O[C@@H]1CO[C@]2(COC(C)(C)O2)[C@@](O)(C2OC2CC(C)C)[C@@H]1OC (some centres not stated) | 442 | 21% | 343 |  |
| C=C(C)[C@@]1(O)[C@H](OC)[C@H](OC)CO[C@]12CO2 | > 500 | 32% | > 500 |  |

Further lines, with some results ahead:

| IC50 ([1]; Homo sapiens, A-431) [µM] | Compound | Eggs [2] | IC50 ([3]; Sus scrofa, Endothelial cell) [µM] | further results |
| --- | --- | --- | --- | --- |
| 44 | CO[C@@H]1[C@H](OC(=O)NC(=O)CCl)CO[C@]2(COC(C)(C)O2)[C@@]1(O)C1OC1CC(C)C (some centres not stated) | 75% and 68% | 124 | IC50 ([3]; endothelial cell): 178 µM |
| > 500 | CNC(=O)O[C@@H]1CO[C@]2(COC(C)(C)O2)[C@@](O)(C2(C)CO2)[C@@H]1OC (some centres not stated) | 51% | 195 |  |
| 19 | CO[C@@H]1[C@H](OC(=O)NC(=O)CCl)CO[C@]2(COC(C)(C)O2)[C@@]1(O)C1OC1CCCc1ccccc1 (some centres not stated) | 79% and 76% | 68 | IC50 ([1]; a-431): 29 µM; IC50 ([3]; endothelial cell): 90 µM |
| 39 | CO[C@@H]1[C@H](OC(=O)NC(=O)CCl)CO[C@]2(COC(C)(C)O2)[C@@]1(OC)C1(C)CO1 (some centres not stated) | 16% | 175 |  |
| > 500 | CO[C@@H]1C(=O)CO[C@]2(COC(C)(C)O2)[C@@]1(O)C1(C)CO1 (some centres not stated) | 48% | 119 |  |
| > 500 | CO[C@@H]1[C@H](OC(=O)NC(=O)c2ccccc2)CO[C@]2(COC(C)(C)O2)[C@@]1(O)C1(C)CO1 (some centres not stated) | 55% | 363 |  |
| > 500 | CO[C@@H]1[C@H](OC(=O)NCCCl)CO[C@]2(COC(C)(C)O2)[C@@]1(O)C1(C)CO1 (some centres not stated) | 10% | 278 |  |
| 5.6 | CO[C@@H]1[C@H](OC(=O)NC(=O)CCl)CO[C@]2(COC(C)(C)O2)[C@@]1(OC(=O)NC(=O)CCl)C(C)C | 95% | 23 |  |
| 84 | CO[C@@H]1[C@H](OC(=O)NC(=O)CCl)CO[C@]2(COC(C)(C)O2)[C@@]1(O)C1(C)CO1 (some centres not stated) | 84% | 57 |  |
| 38 | CO[C@@H]1[C@H](OC(=O)NC(=O)CCl)CO[C@]2(COC(C)(C)O2)[C@@]1(OC(=O)NC(=O)CCl)C1(C)CO1 (some centres not stated) | 62% | 122 |  |
